Experimental findings from patent publication EP2119770B1, “Production of alpha-oxyfunctionalized carbonyl compounds” (priority 2008, dated 2009) are described below.

What all share (format): biochemical
The target of test [1] is T1, Gox1615 (Gluconobacter oxydans, UniProt Q5FQJ0).
T1 sequence (Q5FQJ0 1-332): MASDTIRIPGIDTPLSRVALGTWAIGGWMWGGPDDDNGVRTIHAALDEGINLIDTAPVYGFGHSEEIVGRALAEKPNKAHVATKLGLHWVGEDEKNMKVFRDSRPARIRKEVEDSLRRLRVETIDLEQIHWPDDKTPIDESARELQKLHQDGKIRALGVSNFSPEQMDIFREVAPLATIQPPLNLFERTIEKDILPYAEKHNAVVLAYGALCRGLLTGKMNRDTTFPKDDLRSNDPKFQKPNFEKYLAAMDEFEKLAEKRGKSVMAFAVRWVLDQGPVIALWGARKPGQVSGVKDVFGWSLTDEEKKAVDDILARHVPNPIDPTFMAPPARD
The test can be described thus: Enzyme kinetics (Lineweaver-Burk plots), Gox1615. The following applies: NADPH-dependent reduction. On the procedure: (§1) Determination of pH and temperature optima and enzyme kinetics: The optimum pH for enzyme activities was determined by a modified method of Salusjärvi, T. et al., Appl. Microbiol. Biotechnol. 65:306-314 (2004) using the following buffer system (50 mM final concentration each): sodium acetate pH 4.5 - 6.5, potassium phosphate pH 6.5 - 8.0, Tris-HCl pH 8.0 - 10. Temperature optima for the biocatalysts were determined under standard reaction conditions at temperatures ranging from 20 - 80 °C. The Michaelis constant (Km) for the proteins was determined from purified enzyme by Lineweaver-Burk plots. Assays were performed at optimum pH for each enzyme and at 30 °C using the top substrate and a targeted substrate. The Km for each substrate was calculated using concentrations of 0.0025 to 10 mM, and the Km NAD(P)H and NAD(P) was calculated using concentrations of 0.01 to 0.5 mM
(§2) The Michaelis constants were determined from purified enzyme by Lineweaver-Burk plots. The Km and Vmax values for the substrates were calculated using concentrations of 0.025 to 10 mM, The optimal pH values and temperatures for enzyme activities are also shown in Tab. 11. Tab. 11: Summary of kinetic parameters

For test [2], the target named is T2, Gox0644 (Gluconobacter oxydans, UniProt Q5FT75). The test can be described thus: Gox0644 acetaldehyde tolerance test. From the text:
3.1. […] By coupling two coenzyme-dependent enzyme reactions, NADPH can be continuously regenerated. […] For this purpose, a combined enzymatic reaction was used between the NADPH-dependent oxidoreductases that form α-hydroxy carbonyl compounds and the aldehyde dehydrogenase GOX1122 that produces the reduced cofactor in the course of acetaldehyde oxidation. […] The products derived from the α-diketone and α-ketoaldehyde substrate reaction were generated according to the cofactor regeneration protocol. […] In both the reactions with phenylglyoxal and 2,3 pentanedione, Gox0644 activity remained similar to the control reaction consisting of a reaction without acetaldehyde (Tab. 12/13). […] In the reaction with 2,3 pentanedione there was a slight decrease of about 20% from the control, however, the activity levels were still very high at 66.8 U/mg. […] Table 12: Gox0644 acetaldehyde tolerance tests with phenylglyoxal

For test [3], the target named is T2, Gox0644. The test can be described thus: Enzyme kinetics (Lineweaver-Burk plots), Gox0644. Conditions: NADPH-dependent reduction. On the procedure: as §1, §2
The target in test [4] is T1, Gox1615. Briefly: Regioselectivity of bioconversion, product determined by NMR, Gox1615. Conditions: bioconversion with Gox1122 cofactor regeneration, NMR analysis. From the text:
Cofactor regeneration: A prerequisite for the production of α-hydroxycarbonyl compounds is the regeneration of the expensive coenzymes and the stability of the protein catalysts. By coupling two coenzyme-dependent enzyme reactions, NADPH can be continuously regenerated. […] For this purpose, we used a combined enzymatic reaction between the NADPH-dependent oxidoreductases that form α-hydroxycarbonyl compounds and the aldehyde dehydrogenase GOX1122 (see Schweiger, P. et al., J. Mol. Microbiol. Biotechnol. 13:147-155 (2007)) that produces the reduced cofactor in the course of acetaldehyde oxidation. […] The biotransformation was performed in a batch process (total volume 2.5 ml 40 mM potassium phosphate buffer pH 7). 30 µg of purified Gox1122 and of NADPH-dependent oxidoreductases and 50 µM NADPH were added. The substrate concentration in the beginning was 20 mM 2,3-pentanedione and 20 mM acetaldehyde. Fresh substrates were added every 60 min (20 mM each).
NMR: The 2.5 ml bioconversion was extracted with two times equal volume of d-chloroform. ^1H and ^13C NMR spectra were recorded on a DPX 300 Spectrometer (300 MHz) and referenced to the CDCl3 internal standard. Chemical samples analyzed with Bruker NMR Suite 2.5 software constructed final product structures.
2.7 Regioselectivity of GOX0644 and GOX1615: Tab. […] Tab. 10: Summary of Regioselectivity
The reduced NADPH was oxidized in the reduction of phenylglyoxal to 2-hydroxy-2-phenyl-acetaldehyde by protein Gox1615. 5 ml bioconversions for determining regioselectivity were set up with 2 mg of proteins Gox1615 and Gox1122, 40 mM potassium phosphate buffer, pH 7.0, 50 µM NADPH. Substrates (20 mM phenylglyoxal and acetaldehyde) were added every 30 min. The reaction was followed for 3 h to produce quantities between 40-60 mg of product (2-phenyl-2-hydroxyaldehyde).

With `CCCC(=O)C(C)=O` [2,3-hexanedione], the Vmax in test [1] came to 6 U/mg protein.

With `CCC(=O)C(C)=O` [2,3-pentanedione], the activity levels in test [2] (Gox0644 with 2,3 pentanedione, high concentration of acetaldehyde) is reported as 66.8 U/mg. Also, the Gox0644 activity in test [2] (substrate 2,3-pentanedione, Control (without acetaldehyde)) stood at 87.6 U/mg; in test [2] (substrate 2,3-pentanedione, acetaldehyde 10mM), 90.5 U/mg; in test [2] (substrate 2,3-pentanedione, acetaldehyde 30mM), 79.3 U/mg; in test [2] (substrate 2,3-pentanedione, acetaldehyde 50mM), 66.8 U/mg. Besides, the Vmax in test [3] worked out at 79 U/mg protein. Besides, the “Product (regioselective reduction)” value in test [4] is 2-hdrox-pentane-3-one.

On to `CC(=O)C=O` [methylglyoxal], for which the Vmax in test [1] came out at 22 U/mg protein.

As to `O=CC(=O)c1ccccc1` [phenylglyoxal], the Gox0644 activity stood at 38.5 U/mg in test [2] (substrate phenylglyoxal, Control (without acetaldehyde)); 29.6 U/mg in test [2] (substrate phenylglyoxal, acetaldehyde 10mM); 37.1 U/mg in test [2] (substrate phenylglyoxal, acetaldehyde 30mM); 39.3 U/mg in test [2] (substrate phenylglyoxal, acetaldehyde 50mM); 31.2 U/mg in test [2] (substrate phenylglyoxal, acetaldehyde 100mM). Moreover, the Vmax in test [3] worked out at 93 U/mg protein. Further, the “Product (regioselective reduction)” value is given as 2-hydroxy-2-phenyl-acetaldehyde in test [4] and 2-hydroxy-2-phenylacetaldehyde in test [4] (listed as Phenylglyoxal).
